Source: ChEMBL document CHEMBL1201861, “Genomics of Drug Sensitity in Cancer screening data, Wellcome Trust Sanger Institute”
pIC50: −log10 of the molar value.

Assays:
Assay in all cases: cells
RCM-1 = format: functional, cell-based, Homo sapiens; details: Homo sapiens, RCM-1;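 note: growth inhibition of the RCM-1 line, determined with a cell viability readout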
Description: SANGER: Inhibition of human RCM-1 cell growth in a cell viability assay.

SJSA-1 = format: functional, cell-based, Homo sapiens; details: Homo sapiens, SJSA-1;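 note: growth inhibition of human SJSA-1 cells, read out through a cell viability measurement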
Description: SANGER: Inhibition of human SJSA-1 cell growth in a cell viability assay.

SW-620 = format: functional, cell-based, Homo sapiens; details: Homo sapiens, SW-620;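 note: growth inhibition of human SW-620 cells, measured by a cell viability assay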
Description: SANGER: Inhibition of human SW620 cell growth in a cell viability assay.

SH-4 = format: functional, cell-based, Homo sapiens; details: Homo sapiens, SH-4;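 note: growth inhibition of SH-4 cells, read out with a cell viability assay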
Description: SANGER: Inhibition of human SH-4 cell growth in a cell viability assay.

SW 962 = format: functional, cell-based, Homo sapiens; details: Homo sapiens, SW 962;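 note: growth inhibition of human SW962 cells, read out by a cell viability assay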
Description: SANGER: Inhibition of human SW962 cell growth in a cell viability assay.

EKVX = format: functional, cell-based, Homo sapiens; details: Homo sapiens, EKVX;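 note: growth inhibition of human EKVX cells, read out with a cell viability assay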
Description: SANGER: Inhibition of human EKVX cell growth in a cell viability assay.

NCI-H1792 = format: functional, cell-based, Homo sapiens; details: Homo sapiens, NCI-H1792;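 note: growth inhibition of human NCI-H1792 cells, read out as cell viability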
Description: SANGER: Inhibition of human NCI-H1792 cell growth in a cell viability assay.

MZ1-PC = format: functional, cell-based, Homo sapiens; details: Homo sapiens, MZ1-PC;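 note: cell viability assay measuring growth inhibition of human MZ1-PC cells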
Description: SANGER: Inhibition of human MZ1-PC cell growth in a cell viability assay.

MZ2-MEL = format: functional, cell-based, Homo sapiens; details: Homo sapiens, MZ2-MEL;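 note: growth inhibition of MZ2-MEL cells read out with a cell viability assay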
Description: SANGER: Inhibition of human MZ2-MEL cell growth in a cell viability assay.

A-431 = format: functional, cell-based, Homo sapiens; details: Homo sapiens, A-431;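 note: growth inhibition of A-431 cells, determined with a cell viability read-out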
Description: SANGER: Inhibition of human A431 cell growth in a cell viability assay.

ATN-1 = format: functional, cell-based; details: Homo sapiens;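 note: growth inhibition of human ATN-1 cells, read out with a cell viability assay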
Description: SANGER: Inhibition of human ATN-1 cell growth in a cell viability assay.

SW626 = format: functional, cell-based, Homo sapiens; details: Homo sapiens, SW626;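 note: growth inhibition of SW626 cells, measured with a cell viability assay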
Description: SANGER: Inhibition of human SW626 cell growth in a cell viability assay.

OVCAR-4 = format: functional, cell-based, Homo sapiens; details: Homo sapiens, OVCAR-4;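 note: growth inhibition of human OVCAR-4 cells, measured with a cell viability assay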
Description: SANGER: Inhibition of human OVCAR-4 cell growth in a cell viability assay.

COR-L105 = format: functional, cell-based, Homo sapiens; details: Homo sapiens, COR-L105;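 note: cell growth inhibition determined with a viability assay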
Description: SANGER: Inhibition of human COR-L105 cell growth in a cell viability assay.

KLE = format: functional, cell-based, Homo sapiens; details: Homo sapiens, KLE;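 note: growth inhibition of human KLE cells, read out with a cell viability assay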
Description: SANGER: Inhibition of human KLE cell growth in a cell viability assay.

Huh-7 = format: functional, cell-based, Homo sapiens; details: Homo sapiens, Huh-7;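 note: HuH-7 cell growth inhibition, read out with a cell viability assay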
Description: SANGER: Inhibition of human HuH-7 cell growth in a cell viability assay.

SCH = format: functional, cell-based, Homo sapiens; details: Homo sapiens, SCH;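 note: growth inhibition of human SCH cells, read out in a cell viability assay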
Description: SANGER: Inhibition of human SCH cell growth in a cell viability assay.

TE-12 = format: functional, cell-based; details: Homo sapiens;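 note: growth inhibition of TE-12 cells, read out by a cell viability assay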
Description: SANGER: Inhibition of human TE-12 cell growth in a cell viability assay.

AGS = format: functional, cell-based, Homo sapiens; details: Homo sapiens, AGS;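 note: growth inhibition of AGS cells, determined with a cell viability assay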
Description: SANGER: Inhibition of human AGS cell growth in a cell viability assay.

SK-MEL-28 = format: functional, cell-based; details: Homo sapiens;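 note: growth inhibition of human SK-MEL-28 cells, read out with a cell viability assay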
Description: SANGER: Inhibition of human SK-MEL-28 cell growth in a cell viability assay.

SW756 = format: functional, cell-based, Homo sapiens; details: Homo sapiens, SW756;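 note: growth inhibition of human SW756 cells, read out with a cell viability assay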
Description: SANGER: Inhibition of human SW756 cell growth in a cell viability assay.

DU-4475 = format: functional, cell-based; details: Homo sapiens
Description: SANGER: Inhibition of human DU-4475 cell growth in a cell viability assay.

SW13 = format: functional, cell-based, Homo sapiens; details: Homo sapiens, SW13;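 note: IC50 is inhibition of SW13 cell growth, read out with a cell viability assay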
Description: SANGER: Inhibition of human SW13 cell growth in a cell viability assay.

C-33-A = format: functional, cell-based, Homo sapiens; details: Homo sapiens, C-33-A;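 note: cell viability assay measuring growth inhibition of C-33-A cells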
Description: SANGER: Inhibition of human C-33-A cell growth in a cell viability assay.

J-RT3-T3-5 = format: functional, cell-based; details: Homo sapiens;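 note: cell viability assay measuring growth inhibition of human J-RT3-T3-5 cells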
Description: SANGER: Inhibition of human J-RT3-T3-5 cell growth in a cell viability assay.

RS4-11 = format: functional, cell-based; details: Homo sapiens;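 note: growth inhibition of RS4-11 cells, read out by a cell viability assay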
Description: SANGER: Inhibition of human RS4-11 cell growth in a cell viability assay.

SK-UT-1 = format: functional, cell-based, Homo sapiens; details: Homo sapiens, SK-UT-1;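 note: growth inhibition of SK-UT-1 cells, measured by a cell viability assay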
Description: SANGER: Inhibition of human SK-UT-1 cell growth in a cell viability assay.

KYSE-520 cell line = format: functional, cell-based, Homo sapiens; details: Homo sapiens, KYSE-520;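 note: growth inhibition of human KYSE-520 cells, read out with a viability assay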
Description: SANGER: Inhibition of human KYSE-520 cell growth in a cell viability assay.

COLO-320-HSR = format: functional, cell-based; details: Homo sapiens;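 note: growth inhibition of COLO-320-HSR cells, determined with a cell viability assay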
Description: SANGER: Inhibition of human COLO-320-HSR cell growth in a cell viability assay.

NCI-H2228 = format: functional, cell-based, Homo sapiens; details: Homo sapiens, NCI-H2228;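 note: growth inhibition of human NCI-H2228 cells, read out by a cell viability assay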
Description: SANGER: Inhibition of human NCI-H2228 cell growth in a cell viability assay.

KYSE-150 cell line = format: functional, cell-based, Homo sapiens; details: Homo sapiens, KYSE-150;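 note: growth inhibition of human KYSE-150 cells, read out with a cell viability assay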
Description: SANGER: Inhibition of human KYSE-150 cell growth in a cell viability assay.

GCT = format: functional, cell-based, Homo sapiens; details: Homo sapiens, GCT;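 note: GCT cell line proliferation inhibition, read out with a cell viability assay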
Description: SANGER: Inhibition of human GCT cell growth in a cell viability assay.

LC-2-ad = format: functional, cell-based, Homo sapiens; details: Homo sapiens, LC-2-ad;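 note: growth inhibition of human LC-2-ad cells, read out with a cell viability assay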
Description: SANGER: Inhibition of human LC-2-ad cell growth in a cell viability assay.

MKN-28 = format: functional, cell-based, Homo sapiens; details: Homo sapiens, MKN-28;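 note: cell viability assay read-out, IC50 reflects suppression of growth of human MKN-28 cells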
Description: SANGER: Inhibition of human MKN28 cell growth in a cell viability assay.

LU-139 = format: functional, cell-based; details: Homo sapiens
Description: SANGER: Inhibition of human LU-139 cell growth in a cell viability assay.

CAL-12T = format: functional, cell-based, Homo sapiens; details: Homo sapiens, CAL-12T;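 note: growth inhibition of human CAL-12T cells, read out with a cell viability assay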
Description: SANGER: Inhibition of human CAL-12T cell growth in a cell viability assay.

ABC-1 = format: functional, cell-based, Homo sapiens; details: Homo sapiens, ABC-1;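 note: growth inhibition of human ABC-1 cells, read out by a cell viability assay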
Description: SANGER: Inhibition of human ABC-1 cell growth in a cell viability assay.

RPMI-2650 = format: functional, cell-based, Homo sapiens; details: Homo sapiens, RPMI-2650
Description: SANGER: Inhibition of human RPMI-2650 cell growth in a cell viability assay.

MEG-01 = format: functional, cell-based; details: Homo sapiens;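 note: growth inhibition of MEG-01 cells, read out by a cell viability assay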
Description: SANGER: Inhibition of human MEG-01 cell growth in a cell viability assay.

SF-126 = format: functional, cell-based, Homo sapiens; details: Homo sapiens, SF-126;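 note: growth inhibition of human SF126 cells, read out with a cell viability assay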
Description: SANGER: Inhibition of human SF126 cell growth in a cell viability assay.

KARPAS-45 = format: functional, cell-based; details: Homo sapiens;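 note: inhibition of cell line growth, read out through a viability assay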
Description: SANGER: Inhibition of human KARPAS-45 cell growth in a cell viability assay.

SHP77 = format: functional, cell-based, Homo sapiens, SHP-77; details: Homo sapiens, SHP77;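 note: growth inhibition of human SHP-77 cells measured by a cell viability assay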
Description: SANGER: Inhibition of human SHP-77 cell growth in a cell viability assay.

HPAF-II = format: functional, cell-based, Homo sapiens; details: Homo sapiens, HPAF-II;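 note: growth inhibition of HPAF-II cells, read out with a cell viability assay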
Description: SANGER: Inhibition of human HPAF-II cell growth in a cell viability assay.

GR-ST = format: functional, cell-based; details: Homo sapiens
Description: SANGER: Inhibition of human GR-ST cell growth in a cell viability assay.

ES7 = format: functional, cell-based, Homo sapiens; details: Homo sapiens, ES7;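 note: growth inhibition of cultured human ES7 cells, read out as cell viability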
Description: SANGER: Inhibition of human ES7 cell growth in a cell viability assay.

EW-13 = format: functional, cell-based; details: Homo sapiens;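 note: growth inhibition of EW-13 cells, read out with a cell viability assay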
Description: SANGER: Inhibition of human EW-13 cell growth in a cell viability assay.

HLE = format: functional, cell-based, Homo sapiens; details: Homo sapiens, HLE;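 note: growth inhibition of human HLE cells, read out by a cell viability assay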
Description: SANGER: Inhibition of human HLE cell growth in a cell viability assay.

HT = format: functional, cell-based; details: Homo sapiens
Description: SANGER: Inhibition of human HT cell growth in a cell viability assay.

NCI-H1581 = format: functional, cell-based, Homo sapiens; details: Homo sapiens, NCI-H1581;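 note: cell growth inhibition read out by a viability assay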
Description: SANGER: Inhibition of human NCI-H1581 cell growth in a cell viability assay.

D-392MG = format: functional, cell-based, Homo sapiens; details: Homo sapiens, D-392MG
KNS-42 = format: functional, cell-based, Homo sapiens; details: Homo sapiens, KNS-42;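 note: growth inhibition of KNS-42 cells, read out with a cell viability assay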
Description: SANGER: Inhibition of human KNS-42 cell growth in a cell viability assay.

Compound: O=C1N=C(NCc2cccs2)S/C1=C\c1ccc2ncccc2c1
- pIC50 (RCM-1): < 5.30
- pIC50 (SJSA-1): < 5.30
- pIC50 (SW-620): < 5.30
- pIC50 (SH-4): < 5.30
- pIC50 (SW 962): < 5.30
- pIC50 (EKVX): < 5.30
- pIC50 (NCI-H1792): < 5.30
- pIC50 (MZ1-PC): < 5.30
- pIC50 (MZ2-MEL): < 5.30
- pIC50 (A-431): < 5.30
- pIC50 (ATN-1): < 5.30
- pIC50 (SW626): < 5.30
- pIC50 (OVCAR-4): < 5.30
- pIC50 (COR-L105): < 5.30
- pIC50 (KLE): < 5.30
- pIC50 (Huh-7): < 5.30
- pIC50 (SCH): < 5.30
- pIC50 (TE-12): < 5.30
- pIC50 (AGS): < 5.30
- pIC50 (SK-MEL-28): < 5.30
- pIC50 (SW756): < 5.30
- pIC50 (DU-4475): < 5.30
- pIC50 (SW13): < 5.30
- pIC50 (C-33-A): < 5.30
- pIC50 (J-RT3-T3-5): < 5.30
- pIC50 (RS4-11): < 5.30
- pIC50 (SK-UT-1): < 5.30
- pIC50 (KYSE-520 cell line): < 5.30
- pIC50 (COLO-320-HSR): < 5.30
- pIC50 (NCI-H2228): < 5.30
- pIC50 (KYSE-150 cell line): < 5.30
- pIC50 (GCT): < 5.30
- pIC50 (LC-2-ad): < 5.30
- pIC50 (MKN-28): < 5.30
- pIC50 (LU-139): < 5.30
- pIC50 (CAL-12T): < 5.30
- pIC50 (ABC-1): < 5.30
- pIC50 (RPMI-2650): < 5.30
- pIC50 (MEG-01): < 5.30
- pIC50 (SF-126): < 5.30
- pIC50 (KARPAS-45): < 5.30
- pIC50 (SHP77): < 5.30
- pIC50 (HPAF-II): < 5.30
- pIC50 (GR-ST): < 5.30
- pIC50 (ES7): < 5.30
- pIC50 (EW-13): < 5.30
- pIC50 (HLE): < 5.30
- pIC50 (HT): < 5.30
- pIC50 (NCI-H1581): < 5.30
- pIC50 (D-392MG): < 5.30
- pIC50 (KNS-42): < 5.30

Compound: CCOc1nc(NC(=O)Cc2cc(OC)ccc2OC)cc(N)c1C#N
- pIC50 (RCM-1): < 5.00
- pIC50 (SJSA-1): < 5.00
- pIC50 (SW-620): < 5.00
- pIC50 (SH-4): < 5.00
- pIC50 (SW 962): < 5.00
- pIC50 (EKVX): < 5.00
- pIC50 (NCI-H1792): < 5.00
- pIC50 (MZ1-PC): < 5.00
- pIC50 (MZ2-MEL): < 5.00
- pIC50 (A-431): < 5.00
- pIC50 (ATN-1): < 5.00
- pIC50 (SW626): < 5.00
- pIC50 (OVCAR-4): < 5.00
- pIC50 (COR-L105): < 5.00
- pIC50 (KLE): < 5.00
- pIC50 (Huh-7): < 5.00
- pIC50 (SCH): < 5.00
- pIC50 (TE-12): < 5.00
- pIC50 (AGS): < 5.00
- pIC50 (SK-MEL-28): < 5.00
- pIC50 (SW756): < 5.00
- pIC50 (DU-4475): < 5.00
- pIC50 (SW13): < 5.00
- pIC50 (C-33-A): < 5.00
- pIC50 (J-RT3-T3-5): < 5.00
- pIC50 (RS4-11): < 5.00
- pIC50 (SK-UT-1): < 5.00
- pIC50 (KYSE-520 cell line): < 5.00
- pIC50 (COLO-320-HSR): < 5.00
- pIC50 (NCI-H2228): < 5.00
- pIC50 (KYSE-150 cell line): < 5.00
- pIC50 (GCT): < 5.00
- pIC50 (LC-2-ad): < 5.00
- pIC50 (MKN-28): < 5.00
- pIC50 (LU-139): < 5.00
- pIC50 (CAL-12T): < 5.00
- pIC50 (ABC-1): < 5.00
- pIC50 (RPMI-2650): < 5.00
- pIC50 (MEG-01): < 5.00
- pIC50 (SF-126): < 5.00
- pIC50 (KARPAS-45): < 5.00
- pIC50 (SHP77): < 5.00
- pIC50 (HPAF-II): < 5.00
- pIC50 (GR-ST): < 5.00
- pIC50 (ES7): < 5.00
- pIC50 (EW-13): < 5.00
- pIC50 (HLE): < 5.00
- pIC50 (HT): < 5.00
- pIC50 (NCI-H1581): < 5.00
- pIC50 (D-392MG): < 5.00
- pIC50 (KNS-42): < 5.00

Compound: O=c1cc(-c2cccc3c2Sc2ccccc2S3)oc(N2CCOCC2)c1 [KU-55933]
- pIC50 (RCM-1): < 5.00
- pIC50 (SJSA-1): < 5.00
- pIC50 (SW-620): < 5.00
- pIC50 (SH-4): < 5.00
- pIC50 (SW 962): < 5.00
- pIC50 (EKVX): < 5.00
- pIC50 (NCI-H1792): < 5.00
- pIC50 (MZ1-PC): < 5.00
- pIC50 (MZ2-MEL): < 5.00
- pIC50 (A-431): < 5.00
- pIC50 (ATN-1): < 5.00
- pIC50 (SW626): < 5.00
- pIC50 (OVCAR-4): < 5.00
- pIC50 (COR-L105): < 5.00
- pIC50 (KLE): < 5.00
- pIC50 (Huh-7): < 5.00
- pIC50 (SCH): < 5.00
- pIC50 (TE-12): < 5.00
- pIC50 (AGS): < 5.00
- pIC50 (SK-MEL-28): < 5.00
- pIC50 (SW756): < 5.00
- pIC50 (DU-4475): < 5.00
- pIC50 (SW13): < 5.00
- pIC50 (C-33-A): < 5.00
- pIC50 (J-RT3-T3-5): < 5.00
- pIC50 (RS4-11): < 5.00
- pIC50 (SK-UT-1): < 5.00
- pIC50 (KYSE-520 cell line): < 5.00
- pIC50 (COLO-320-HSR): < 5.00
- pIC50 (NCI-H2228): < 5.00
- pIC50 (KYSE-150 cell line): < 5.00
- pIC50 (GCT): < 5.00
- pIC50 (LC-2-ad): < 5.00
- pIC50 (MKN-28): < 5.00
- pIC50 (CAL-12T): < 5.00
- pIC50 (ABC-1): < 5.00
- pIC50 (RPMI-2650): < 5.00
- pIC50 (MEG-01): < 5.00
- pIC50 (SF-126): < 5.00
- pIC50 (SHP77): < 5.00
- pIC50 (HPAF-II): < 5.00
- pIC50 (GR-ST): < 5.00
- pIC50 (ES7): < 5.00
- pIC50 (EW-13): < 5.00
- pIC50 (HLE): < 5.00
- pIC50 (HT): < 5.00
- pIC50 (NCI-H1581): < 5.00
- pIC50 (D-392MG): < 5.00
- pIC50 (KNS-42): < 5.00
